We go through 4 compounds from US20240209388A1, “EXPRESSION VECTOR OF GLYPHOSATE-RESISTANT GENES GR79 AND GAT, HIGH GLYPHOSATE-RESISTANT CORN, AND DETECTION METHOD THEREFOR” (BIOTECHNOLOGY RESEARCH INSTITUTE, CHINESE ACADEMY OF …, priority 2021, published 2024).

The structures appear in SMILES notation. Entries after “also recorded” stand apart in the source; their conditions may differ. Where two headings read alike, the source gives them in different places.

Data set [1] has as its system non-transgenic control corn. Format: in vivo. The settings on record: high dose on the pesticide registration tag, four to six leaves, surveyed 1, 2, 4 weeks after application. From the text: (§1) transgenic corn to non-target herbicide 3 types of herbicides were set in this test, i.e., mesotrione· propisochlor atrazine SC (3.5% mesotrione, 15% propisochlor, and 15% atrazine) commonly used in corn field, glufosinate-ammonium (20% active ingredient) sensitive to corn, and haloxyfop-R-methyl (10.8% active ingredient), respectively. 4 treatments were set: (1) free of spraying herbicide; (2) spraying mesotrione· propisochlor atrazine SC; (3) spraying glufosinate-ammonium; and (4) spraying haloxyfop-R-methyl. The spraying dose is a high dose on the pesticide registration tag. Stems and leaves were sprayed when corn grew to four to six leaves. Seedling rate and symptom of pesticide damage were surveyed 1, 2, and 4 weeks later after application, respectively.

For data set [2], the system named is bivalent GAT and GR79 transgenic herbicide-resistant corn. It counts as in vivo. The following applies: high dose on the pesticide registration tag, four to six leaves, surveyed 1, 2, 4 weeks after application.
Source text: as §1

The subject of the next data set is transgenic cotton. The settings on record: T1 generation, solution diluted to 1/200 (0.205 g/100 ml), 450 L/hectare; cited from earlier work.
The subject of a further data set is transgenic maize. The settings on record: AM79 single-gene transgenic maize; cited from earlier work.
For the next data set, the system named is transgenic corn GG2. The experiment in a line: Field glyphosate tolerance of the transgenic corn event GG2. It counts as in vivo, Zea mays. The settings on record: for plant height 1 week BC4 / plant height 1 week BC5: 1 week after application; for plant height 2 weeks BC4 / plant height 2 weeks BC5: 2 weeks after application; for plant height 4 weeks BC4 / plant height 4 weeks BC5: 4 weeks after application. The protocol:
Field herbicide tolerance of transgenic corn was tested in accordance with the Test for Environmental Safety of Transgenic Plant and its Products Part 1 of Herbicide-Resistant Corn: herbicide Tolerance (No. 953 bulletin-11.1-2007 of the Ministry of Agriculture and Rural Affairs).
The test material was the transgenic corn GG2, and the corresponding non-transgenic corn. The herbicide was glyphosate. […] An isolation belt (a width of 1.0 m) was set among the blocks. Treatments include: transgenic corn not sprayed with a herbicide, transgenic corn sprayed with a target herbicide (glyphosate), non-transgenic corn not sprayed with a herbicide, and non-transgenic corn sprayed with a target herbicide (glyphosate). The application amount of the herbicide was 1-fold, 2 times, and 4 times the medium dose (active ingredient: 900 g/hectare) on the pesticide registration tag, respectively. The herbicide was applied at the four to five-leaf stage of corn. The rate of survival, plant height, and symptom of pesticide damage were surveyed and recorded 1, 2, and 4 weeks later after application, respectively. The symptom of pesticide damage was graded according to GB/T 19780.42. Glyphosate in the transgenic corn GG2, and in its corresponding transgenic control, and non-transgenic control was identified.

The test system of data set [3] is monovalent GAT transgenic corn. The experiment in a line: Screening of high glyphosate-resistant events of monovalent GAT transgenic corn. It counts as in vivo, Zea mays. From the text:
To determine the effect of the combined use of double genes on high glyphosate tolerance, the transgenic corn transformed with the single gene GAT was subjected to glyphosate tolerance test according to the same screening process, 8 transformation events which could be resistant to 4 times glyphosate were obtained finally, accounting for 21.05% of the 38 positive transgenic materials. By comparison of the two, the bivalent GAT and GR79 transgenic glyphosate-resistant corn was easier to obtain high glyphosate-resistant materials.

Data set [4] concerns bivalent GAT and GR79 transgenic corn. The experiment in a line: Screening of high glyphosate-resistant events of bivalent GAT and GR79 transgenic corn. Format: in vivo, Zea mays. The following applies: for transformation events free of symptom of pesticide damage: 4 weeks after application. The protocol:
2 times the medium dose of glyphosate (active ingredient: 1800 g/hectare) was continuously applied, and survey was conducted 4 weeks later after application, 63 transformation events were free of symptom of pesticide damage. The T2 generation of materials of the screened 63 transformation events were sown and sprayed with glyphosate at the four to five-leaf stage in a spraying amount of 1-fold, 2 times, and 4 times the medium dose (active ingredient: 900 g/hectare) on the pesticide registration tag. The rate of survival and symptom of pesticide damage of each transformation event were surveyed and recorded 4 weeks later after application. 47 transformation events were free of symptom of pesticide damage after sprayed with 4 times the medium dose of glyphosate and thus, were high glyphosate-resistant materials, accounting for 61.84% of the 76 positive transgenic materials. The screening concentration continued to be increased; when it was up to 8 times (active ingredient: 7200 g/hectare) the medium dose, 6 transformation events were not affected.

Where [5] appears, read: GG2 BC4, 1-fold the medium dose.
Setting [6] is: GG2 BC4, 2 times the medium dose.
The mark [7] stands for this setting: GG2 BC4, 4 times the medium dose.
Setting [8] is: GG2 BC5, 1-fold the medium dose.
The mark [9] stands for this setting: GG2 BC5, 2 times the medium dose.
Setting [10] is: GG2 BC5, 4 times the medium dose.
The mark [11] stands for this setting: 8 times the medium dose (active ingredient: 7200 g/hectare).

For the compound `CP(=O)(O)CCC(N)C(=O)O` (centres unmarked) [glufosinate-ammonium], the “seedling rate and symptom of pesticide damage” value in data set [1] is reported as “died”; in data set [2], “died”; in data set [2] (listed as Glufosinate-ammonium), “sensitive”.
Take `CC(C)N.O=C(O)CNCP(=O)(O)O` [glyphosate isopropylamine]: in the data set on transgenic cotton, the survival rate result is listed as “more than 84%”.
`O=C(O)CNCP(=O)(O)O` [glyphosate]: the “tolerated dose (active ingredient)” value in the data set with transgenic maize is recorded as 3600 g/hectare. The “plant height versus transgenic corn not sprayed” value with transgenic corn GG2 (GG2, 1-fold, 2 and 4 times the medium dose) is “no significant difference”. In addition, the symptom of damage result in the data set with transgenic corn GG2 (GG2, 1-fold, 2 and 4 times the medium dose, each stage, two consecutive generations) is “free of symptom of damage”. The “plant height 1 week BC4” value with transgenic corn GG2 (GG2 BC4, 1-fold the medium dose (900 g active ingredient/hectare)) stood at 58.52 cm; in the data set on transgenic corn GG2 (setting [6]) it was 51.24 cm; in the data set on transgenic corn GG2 (setting [7]), 59.81 cm. For the same compound, the “plant height 2 weeks BC4” value with transgenic corn GG2 (setting [5]) stood at 85.59 cm; in the data set with transgenic corn GG2 (setting [6]), 79.38 cm; in the data set with transgenic corn GG2 (setting [7]), 88.41 cm. The entries for the “plant height 4 weeks BC4” value in the data set with transgenic corn GG2 (setting [5]), in the data set on transgenic corn GG2 (setting [6]) and in the data set with transgenic corn GG2 (setting [7]) were 158.39 cm, 147.75 cm and 158.53 cm, respectively. The “plant height 1 week BC5” value with transgenic corn GG2 (setting [8]) stood at 33.87 cm; with transgenic corn GG2 (setting [9]), 33.11 cm; with transgenic corn GG2 (setting [10]), 34.65 cm. Also, the “plant height 2 weeks BC5” value is 51.71 cm with transgenic corn GG2 (setting [8]), 54.29 cm with transgenic corn GG2 (setting [9]) and 53.78 cm with transgenic corn GG2 (setting [10]). The “plant height 4 weeks BC5” value with transgenic corn GG2 (setting [8]) came to 136.37 cm; in the data set on transgenic corn GG2 (setting [9]) it was 139.65 cm; with transgenic corn GG2 (setting [10]), 137.39 cm. The “glyphosate dose GG2 is resistant to” value in the data set with transgenic corn GG2 (medium dose 900 g active ingredient/hectare) turned out to be 4 times the medium dose. For the same compound, the “resistant events as share of the 38 positive transgenic materials” value in data set [3] (4 times glyphosate) is 21.05%. For the same compound, in data set [3] (setting [11]), the plant survival entry is listed as “no survival plant”. For the same compound, the “transformation events resistant to 4 times glyphosate” value in data set [3] (of 38 positive single-gene GAT materials, 4 times the medium dose) was determined as 8. For the same compound, the “leaf symptoms of pesticide damage” value in data set [3] (partial high-resistant GAT events, a few days after 4 times the medium dose) is “mild symptoms of herbicide damage; also recorded: mild symptoms of pesticide damage”. Besides, in data set [4] (4 times the medium dose), the “high glyphosate-resistant materials as share of the 76 positive transgenic materials” value was determined as 61.84%. Further, in data set [4] (setting [11]), the “transformation events not affected” value worked out at 6. The “harm by glyphosate during multi-generation screening” value in data set [4] (GG2 transformation event) is reported as “not endangered by glyphosate”. In addition, the “transformation events free of symptom of pesticide damage” value in data set [4] (T1, 2 times the medium dose (active ingredient: 1800 g/hectare)) is recorded as 63; in data set [4] (T2 of 63 events, 4 times the medium dose) it was 47. The compound also gave a survival transformation events in data set [4] (T1 generation of 76 double-positive events, four-leaf stage, medium dose (active ingredient: 900 g/hectare)) of 72. Besides, the “rate of zero symptom of pesticide damage” value in data set [4] (T1 generation of 76 double-positive events, medium dose (active ingredient: 900 g/hectare)) amounted to 94.7%.
As for `COC(=O)[C@@H](C)Oc1ccc(Oc2ncc(C(F)(F)F)cc2Cl)cc1` [haloxyfop-R-methyl], in data set [1], the “seedling rate and symptom of pesticide damage” value is recorded as “died”.
